Laboratory results as given in ChEMBL document CHEMBL1138649, “Urea derivatives of STI571 as inhibitors of Bcr-Abl and PDGFR kinases” (Bioorg Med Chem Lett, 2004).

Key:
[1] = Inhibitory concentration required to inhibit PDGFR kinase was determined
[2] = target: T1, Breakpoint cluster region protein (Homo sapiens, UniProt P11274); experiment: Inhibitory concentration required to inhibit Bcr-Abl tyrosine kinase
T1 sequence (P11274 whole entry): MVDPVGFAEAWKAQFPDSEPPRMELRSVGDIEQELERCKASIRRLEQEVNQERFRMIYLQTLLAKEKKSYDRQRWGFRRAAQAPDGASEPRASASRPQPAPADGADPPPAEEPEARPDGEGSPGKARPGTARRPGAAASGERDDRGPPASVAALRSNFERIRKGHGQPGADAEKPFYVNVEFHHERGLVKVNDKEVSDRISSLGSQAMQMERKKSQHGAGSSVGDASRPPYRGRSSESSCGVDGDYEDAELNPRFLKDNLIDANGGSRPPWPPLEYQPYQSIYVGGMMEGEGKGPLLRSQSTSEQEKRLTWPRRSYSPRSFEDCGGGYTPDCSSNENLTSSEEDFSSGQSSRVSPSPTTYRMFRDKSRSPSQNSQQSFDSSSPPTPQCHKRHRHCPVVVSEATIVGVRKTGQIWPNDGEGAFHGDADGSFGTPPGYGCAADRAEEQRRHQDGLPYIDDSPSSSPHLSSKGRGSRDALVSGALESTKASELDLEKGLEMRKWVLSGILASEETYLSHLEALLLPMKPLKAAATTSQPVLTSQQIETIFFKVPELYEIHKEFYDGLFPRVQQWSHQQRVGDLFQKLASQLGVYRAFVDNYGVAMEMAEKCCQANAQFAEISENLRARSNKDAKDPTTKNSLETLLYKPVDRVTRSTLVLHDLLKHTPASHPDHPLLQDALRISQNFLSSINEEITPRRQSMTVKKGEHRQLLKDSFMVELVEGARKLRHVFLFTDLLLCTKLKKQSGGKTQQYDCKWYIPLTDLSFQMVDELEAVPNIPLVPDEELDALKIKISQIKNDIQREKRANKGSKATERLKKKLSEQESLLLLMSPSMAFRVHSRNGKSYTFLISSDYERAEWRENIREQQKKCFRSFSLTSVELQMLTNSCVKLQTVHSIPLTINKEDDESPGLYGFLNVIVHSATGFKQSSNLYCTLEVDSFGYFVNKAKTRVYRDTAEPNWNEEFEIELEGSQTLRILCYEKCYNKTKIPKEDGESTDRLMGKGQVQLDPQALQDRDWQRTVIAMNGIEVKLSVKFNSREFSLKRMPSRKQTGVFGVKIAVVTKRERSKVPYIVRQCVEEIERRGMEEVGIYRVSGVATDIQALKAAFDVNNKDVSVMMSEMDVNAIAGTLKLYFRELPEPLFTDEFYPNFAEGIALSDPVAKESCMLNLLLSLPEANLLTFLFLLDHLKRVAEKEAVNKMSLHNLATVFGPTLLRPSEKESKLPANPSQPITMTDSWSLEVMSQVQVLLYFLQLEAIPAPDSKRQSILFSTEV

[3] = target: Tyrosine-protein kinase ABL1 (Homo sapiens, UniProt P00519); experiment: Inhibitory concentration required to inhibit Abl tyrosine kinase
Tyrosine-protein kinase ABL1, sequence (P00519 whole entry): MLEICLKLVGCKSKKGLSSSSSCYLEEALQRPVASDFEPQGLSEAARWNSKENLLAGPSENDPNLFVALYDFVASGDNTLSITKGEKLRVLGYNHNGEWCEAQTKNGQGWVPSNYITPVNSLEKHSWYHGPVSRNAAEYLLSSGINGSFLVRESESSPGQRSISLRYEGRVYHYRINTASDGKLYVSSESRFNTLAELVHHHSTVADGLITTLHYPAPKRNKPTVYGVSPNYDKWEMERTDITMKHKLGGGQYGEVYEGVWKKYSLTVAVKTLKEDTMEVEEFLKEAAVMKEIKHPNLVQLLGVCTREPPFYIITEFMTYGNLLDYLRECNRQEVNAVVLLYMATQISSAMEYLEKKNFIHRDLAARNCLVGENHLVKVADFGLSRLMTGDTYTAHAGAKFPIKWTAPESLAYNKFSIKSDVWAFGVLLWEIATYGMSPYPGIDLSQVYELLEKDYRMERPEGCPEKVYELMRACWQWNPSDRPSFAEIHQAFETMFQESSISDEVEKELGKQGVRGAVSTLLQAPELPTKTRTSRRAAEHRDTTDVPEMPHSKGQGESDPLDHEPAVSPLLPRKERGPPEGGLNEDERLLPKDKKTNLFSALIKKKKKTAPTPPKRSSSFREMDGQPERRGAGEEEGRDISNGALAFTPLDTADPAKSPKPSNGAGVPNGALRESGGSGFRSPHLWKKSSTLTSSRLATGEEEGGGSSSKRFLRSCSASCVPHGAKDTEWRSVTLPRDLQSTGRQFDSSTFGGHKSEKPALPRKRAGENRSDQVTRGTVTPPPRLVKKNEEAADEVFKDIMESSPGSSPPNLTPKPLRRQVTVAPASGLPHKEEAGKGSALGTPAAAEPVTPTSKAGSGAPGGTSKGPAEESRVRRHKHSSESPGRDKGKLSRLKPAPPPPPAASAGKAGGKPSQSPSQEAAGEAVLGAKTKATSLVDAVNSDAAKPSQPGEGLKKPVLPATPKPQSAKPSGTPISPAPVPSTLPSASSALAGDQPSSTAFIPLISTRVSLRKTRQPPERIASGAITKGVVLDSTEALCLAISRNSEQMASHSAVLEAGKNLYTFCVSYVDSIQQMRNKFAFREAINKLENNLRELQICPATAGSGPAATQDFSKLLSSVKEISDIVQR

[4] = Maximum plasma concentration was determined in mice after 20 mg/kg oral administration of the compound; format: ADME, organism-based; design: dose 20 mg/kg, route oral; details: mouse
[5] = Maximum plasma concentration time in minutes was determined in mice after 20 mg/kg oral administration of the compound; format: ADME, organism-based; design: dose 20 mg/kg, route oral; details: mouse
[6] = Plasma concentration after 120 minutes gavage was determined in mice after 20 mg/kg oral administration of the compound; format: ADME, organism-based; design: dose 20 mg/kg, route oral; details: mouse, read-out: C120

SMILES | IC50 [1] [nM] | IC50 [3] [nM] | further results
Cc1ccc(NC(=O)NCCCO)cc1Nc1nccc(-c2cccnc2)n1 | > 3000 |  | 
Cc1ccc(NC(=O)Nc2ccc(N(C)C)cc2)cc1Nc1nccc(-c2cccnc2)n1 | 1730 | > 5000 | IC50 ([2]; read-out: IC50): > 10000 nM
Cc1ccc(NC(=O)Nc2cccc(N3CCCC3)c2)cc1Nc1nccc(-c2cccnc2)n1 | > 2500 |  | 
Cc1ccc(NC(=O)NCCCN2CCOCC2)cc1Nc1nccc(-c2cccnc2)n1 | 414 |  | 
Cc1ccc(NC(=O)N(C)CCCO)cc1Nc1nccc(-c2cccnc2)n1 | > 3000 |  | 
CCN(CC)c1ccc(NC(=O)Nc2ccc(C)c(Nc3nccc(-c4cccnc4)n3)c2)cc1 | 2020 | > 3400 | IC50 ([2]; read-out: IC50): > 10000 nM
Cc1ccc(NC(=O)NCCCn2ccnc2)cc1Nc1nccc(-c2cccnc2)n1 | > 1300 |  | 
Cc1ccc(NC(=O)NCCCN(C)C)cc1Nc1nccc(-c2cccnc2)n1 | > 1600 |  | 
Cc1ccc(NC(=O)Nc2cccc3[nH]ncc23)cc1Nc1nccc(-c2cccnc2)n1 | 375 |  | 
Cc1ccc(NC(=O)NCCN2CCCC2)cc1Nc1nccc(-c2cccnc2)n1 | 655 |  | IC50 ([2]; read-out: IC50): > 9000 nM
Cc1ccc(NC(=O)Nc2ccccc2CN(C)C2CCCCC2)cc1Nc1nccc(-c2cccnc2)n1 | 100 | 870 | 

The remaining compounds from weak to strong by IC50 [1], led by results:

IC50 [1] [nM] | IC50 [3] [nM] | SMILES | further results
256 |  | Cc1ccc(NC(=O)N2CCN(Cc3ccncc3)CC2)cc1Nc1nccc(-c2cccnc2)n1 | 
236 |  | Cc1ccc(NC(=O)NCc2ccc(N(C)C)cc2)cc1Nc1nccc(-c2cccnc2)n1 | 
192 |  | Cc1ccc(NC(=O)Nc2cccc(CN3CCN(C)CC3)c2)cc1Nc1nccc(-c2cccnc2)n1 | 
176 |  | Cc1ccc(NC(=O)N2CCC(N3CCCC3)CC2)cc1Nc1nccc(-c2cccnc2)n1 | 
132 |  | Cc1ccc(NC(=O)N2CCN(C)CC2)cc1Nc1nccc(-c2cccnc2)n1 | IC50 ([2]; read-out: IC50): > 5000 nM
96 | 1000 | Cc1ccc(NC(=O)Nc2cccnc2)cc1Nc1nccc(-c2cccnc2)n1 | 
64 |  | Cc1ccc(NC(=O)Nc2cccc3ncccc23)cc1Nc1nccc(-c2cccnc2)n1 | Cmax [4]: 170 nM; Tmax [5]: 30 min; concentration at 2 h [6]: 50 nM
63 |  | Cc1ccc(NC(=O)N2CCCCC2)cc1Nc1nccc(-c2cccnc2)n1 | Cmax [4]: 4320 nM; Tmax [5]: 30 min; concentration at 2 h [6]: 510 nM
47 | 280 | CCN(CC)c1cccc(NC(=O)Nc2ccc(C)c(Nc3nccc(-c4cccnc4)n3)c2)c1 | IC50 ([2]; read-out: IC50): > 1000 nM
26 | 56 | Cc1ccc(NC(=O)Nc2cccc(N(C)C)c2)cc1Nc1nccc(-c2cccnc2)n1 | Cmax [4]: 1370 nM; IC50 [2]: 573 nM; Tmax [5]: 30 min; concentration at 2 h [6]: 300 nM
17 | 175 | Cc1ccc(NC(=O)Nc2cccc(Cl)c2)cc1Nc1nccc(-c2cccnc2)n1 | IC50 ([2]; read-out: IC50): 1000 nM
